{"source": "patent US4124598A", "about": "“Psoralens” (Hoffmann-La Roche Inc., priority 1976, dated 1978)", "key": {"[1]": {"experiment": "Molar extinction coefficient in pure water", "format": "physicochemical", "excerpt": "(§1) The units of the dissociation constants are moles/liter. Solubilities and molar extinction coefficients (ε) were obtained in pure water, the equilibrium constants (KD) in 0.01 M Tris."}, "[2]": {"details": "calculated from literature results, cited from earlier work"}, "[3]": {"molecular_target": "Drosophila melanogaster ribosomal RNA", "details": "calculated from literature results, cited from earlier work"}, "Calf thymus DNA [4]": {"test_system": "Calf thymus DNA", "experiment": "Equilibrium dialysis, non-covalent binding to DNA", "details": "for (PS)/(S) for DNA in Saturated Solution: occupied/unoccupied binding sites", "protocol": "(§2) In order to establish the dissociation constants from DNA and RNA, the non-covalent binding was ascertained. Non-covalent binding determines the presence of the psoralen within the nucleic acid helix. Its presence is determined in the absence of any radiant energy. As noted before, radiant energy is necessary to activate the psoralen covalent binding reaction with nucleic acid base pairs.\n(§3) To determine the non-covalent binding, Calf thymus DNA (Sigma Type I) was dissolved in a 0.01 M Tris 0.001 M EDTA pH 8.5 buffer at a concentration of 25 ug/ml. A quantity of this DNA solution was placed in a dialysis bag (pretreated by boiling in NaHCO3), and the various tritiated derivatives were added inside the bag in half the cases and outside the bag in the other half. The molar ratio of psoralen molecules to base pairs was approximately 1:25. The bags were placed in vials filled with 18 ml of buffer and put on a shaker for 48-60 hours. After this period, radioactivity was determined both inside and outside the bags and the optical density of the DNA solution measured. From this information, and the specific activity of each derivative, the amount of drug non-covalently bound to the DNA was determined. Binding of the derivatives to Drosophila melanogaster ribosomal RNA was measured in exactly the same manner.\nas §1"}, "Calf thymus DNA [5]": {"test_system": "Calf thymus DNA", "details": "calculated from literature results, cited from earlier work"}, "[6]": {"experiment": "Hydrolysis in aqueous solution", "format": "physicochemical"}, "[7]": {"molecular_target": "Drosophila melanogaster ribosomal RNA", "experiment": "Equilibrium dialysis, non-covalent binding to RNA", "protocol": "as §2, §3, §1"}, "[8]": {"test_system": "RNA (Drosophila melanogaster ribosomal RNA)", "experiment": "High intensity photoaddition (covalent binding) to RNA", "details": "25 μg/ml RNA, psoralen:base pair 1:3", "protocol": "(§4) The covalent binding of the psoralens to DNA and RNA was studied. To achieve covalent binding, it is necessary to supply radiant energy (light) to the binding sites. These studies were carried out as follows:\n(§5) The DNA and RNA used in the covalent binding studies have been described previously. Samples of each nucleic acid were prepared at a concentration of 25 ug/ml in 0.01 m Tris 0.001 M EDTA buffer. The radioactive-psoralen derivatives were added in a ratio of one psoralen for every three base pairs. The irradiation was carried out in one of the two following devices.\n(§6) The low intensity irradiations were performed with a modified slide projector which was fitted with a 400 watt General Electric mercury vapor lamp (H 400 A 33-1/T16). The image of the arc was focused on the same cell, jacketed by a cobaltous nitrate solution which was also used for the high intensity irradiations. The light intensity delivered to the sample in this device was 4 to 6 mw/cm^2. The high intensity irradiations were carried out in a device containing two of the sam 400 watt General Electric mercury vapor lamps which were mounted on either side of a double walled sample chamber at a distance between centers of 4.0 cm. The chamber was cooled to 10° C. by continuous circulation of a temperature regulated solution of cobaltous nitrate (40% w/w). The cobalt solution served as an ultraviolet filter which allowed a maximum transmittance of 365 nm light and a window from approximately 340-380 nm. The intensity of the light at the surface of the inner sample chamber was approximately 100 mw/cm^2. The nucleic acid-psoralen mixture was placed in the inner chamber where it was continuously stirred throughout the irradiation. Aliquots of each solution (derivative plus nucleic acid) were taken at 20, 40 and 60 minutes. Each aliquot was then extracted twice with chloroform/iso-amyl alcohol (24:1) to remove unreacted psoralen followed by exhaustive dialysis against 0.01 M Tris, 0.001 M EDTA buffer. The successful extraction of unbound psoralen by the chloroform-isoamyl alcohol required the aqueous phase to be at least 0.15 M in NaCl. Finally, the optical density of the nucleic-acid psoralen mixture was taken and its radioactivity determined, thus giving the amount of derivative covalently bound to the DNA or RNA. Taking samples, at spaced time intervals also permitted an assessment of the kinetics of the covalent binding."}, "Solubility in pure water": {"experiment": "Solubility in pure water", "format": "physicochemical", "details": "pure water", "excerpt": "In order to study solubilities and dissociation constants, it is most convenient to prepare tritiated derivatives of the psoralen compounds. Thus, well-known radiation counting methods may be utilized to monitor the presence of the psoralens in solutions, or in nucleic acids.\nas §1"}, "DNA (calf thymus) [9]": {"test_system": "DNA (calf thymus)", "experiment": "Low intensity photoaddition (covalent binding) to DNA", "details": "for A (footnote 1, shown as drawing 9) / B = percent of added psoralen covalently bound: 25 μg/ml DNA, psoralen:base pair 1:3", "protocol": "as §4, §5\nas §6, with “Aliquots of each solution (derivative plus nucleic acid) were taken at 20, 40 and 60 minutes.” left out"}, "DNA (calf thymus) [10]": {"test_system": "DNA (calf thymus)", "experiment": "High intensity photoaddition (covalent binding) to DNA", "details": "25 μg/ml DNA, psoralen:base pair 1:3", "protocol": "as §4, §5, §6"}, "DNA": {"test_system": "DNA", "experiment": "Reactivity with DNA (general statement)", "format": "binding, calf", "protocol": "as §4, §5\nas §6, with “Each aliquot was then extracted twice with chloroform/iso-amyl alcohol (24:1) to remove unreacted psoralen followed by exhaustive dialysis against 0.01 M Tris, 0.001 M EDTA buffer. The successful extraction of unbound psoralen by the chloroform-isoamyl alcohol required the aqueous phase to be at least 0.15 M in NaCl.” left out, “Taking samples, at spaced time intervals also permitted an assessment of the kinetics of the covalent binding.” left out"}, "[11]": {"test_system": "vesicular stomatitis virus", "format": "cell-based, Vesicular stomatitis virus Indiana strain", "details": "high dose rates, e.g., 30 μg/ml"}, "[12]": {"details": "0.01 M Tris, non-covalent binding"}}, "note": "Where two headings read alike, the source gives them in different places."}
{"smiles": "COc1c2occc2cc2ccc(=O)oc12", "note": "[8-methoxypsoralen, 8-methoxy psoralen]", "values": [{"measurement": "Extinction coefficient ε, 250 nm", "setting": "[1]", "value": 19000, "unit": "L/mol/cm"}, {"measurement": "solubility", "setting": "[2]", "value": 36, "unit": "µg/mL"}, {"measurement": "solubility", "setting": "[2]; molar", "value": 170, "unit": "µM"}, {"measurement": "Kd", "setting": "[3]", "value": 17, "unit": "mM"}, {"measurement": "(PS)/(S) for RNA in Saturated Solution", "setting": "[3]; saturated solution", "value": 0.010}, {"measurement": "one psoralen per n base pairs at equilibrium (best achievable)", "setting": "Calf thymus DNA [4]; saturated solution", "value": "~20", "unit": "base pairs"}, {"measurement": "Kd", "setting": "Calf thymus DNA [5]", "value": 2.5, "unit": "mM"}, {"measurement": "(PS)/(S) for DNA in Saturated Solution", "setting": "Calf thymus DNA [5]; saturated solution", "value": 0.068}]}
{"smiles": "Cc1oc2c(C)c3oc(=O)cc(C)c3cc2c1CCl", "note": "[4'-chloromethyl-4,5',8-trimethyl psoralen]", "values": [{"measurement": "hydrolysis of the chloromethyl substituent in aqueous solution", "setting": "[6]", "value": "readily hydrolysed in aqueous solution"}]}
{"smiles": "Cc1oc2c(C)c3oc(=O)cc(C)c3cc2c1CO", "note": "[4'-hydroxymethyl-4,5',8-trimethyl psoralen]", "values": [{"measurement": "Extinction coefficient ε, 250 nm", "setting": "[1]", "value": 25000, "unit": "L/mol/cm"}, {"measurement": "Kd", "setting": "[7]; [12]", "value": 1, "unit": "mM"}, {"measurement": "(PS)/(S) for RNA in Saturated Solution", "setting": "[7]; saturated solution, occupied/unoccupied binding sites", "value": 0.16}, {"measurement": "A (footnote 1, shown as drawing 11)", "setting": "[8]; 20 min irradiation", "value": 26.3}, {"measurement": "B = percent of added psoralen covalently bound", "setting": "[8]; 20 min irradiation", "value": 11.5, "unit": "%"}, {"measurement": "A (footnote 1, shown as drawing 11)", "setting": "[8]; 40 min irradiation", "value": 24.8}, {"measurement": "B = percent of added psoralen covalently bound", "setting": "[8]; 40 min irradiation", "value": 12.1, "unit": "%"}, {"measurement": "A (footnote 1, shown as drawing 11)", "setting": "[8]; 60 min irradiation", "value": 23.5}, {"measurement": "B = percent of added psoralen covalently bound", "setting": "[8]; 60 min irradiation", "value": 13.0, "unit": "%"}, {"measurement": "solubility", "setting": "Solubility in pure water", "value": 41, "unit": "µg/mL"}, {"measurement": "solubility", "setting": "Solubility in pure water; molar", "value": 160, "unit": "µM"}, {"measurement": "A (footnote 1, shown as drawing 9)", "setting": "DNA (calf thymus) [9]; 5 min irradiation", "value": 89.0}, {"measurement": "B = percent of added psoralen covalently bound", "setting": "DNA (calf thymus) [9]; 5 min irradiation", "value": 3.0, "unit": "%"}, {"measurement": "A (footnote 1, shown as drawing 9)", "setting": "DNA (calf thymus) [9]; 10 min irradiation", "value": 59.6}, {"measurement": "B = percent of added psoralen covalently bound", "setting": "DNA (calf thymus) [9]; 10 min irradiation", "value": 4.6, "unit": "%"}, {"measurement": "A (footnote 1, shown as drawing 9)", "setting": "DNA (calf thymus) [9]; 30 min irradiation", "value": 26.0}, {"measurement": "B = percent of added psoralen covalently bound", "setting": "DNA (calf thymus) [9]; 30 min irradiation", "value": 10.3, "unit": "%"}, {"measurement": "A (footnote 1, shown as drawing 9)", "setting": "DNA (calf thymus) [9]; 60 min irradiation", "value": 19.5}, {"measurement": "B = percent of added psoralen covalently bound", "setting": "DNA (calf thymus) [9]; 60 min irradiation", "value": 13.8, "unit": "%"}, {"measurement": "A (footnote 1, shown as drawing 9)", "setting": "DNA (calf thymus) [9]; 90 min irradiation", "value": 17.2}, {"measurement": "B = percent of added psoralen covalently bound", "setting": "DNA (calf thymus) [9]; 90 min irradiation", "value": 15.7, "unit": "%"}, {"measurement": "moles of psoralen bound per mole of base pairs", "setting": "DNA (calf thymus) [9]; 90 minutes irradiation", "value": "0.06 moles per mole of base pairs"}, {"measurement": "remains free in the solution", "setting": "DNA (calf thymus) [9]; after 90 minutes of irradiation", "value": "more than 80%"}, {"measurement": "Kd", "setting": "Calf thymus DNA [4]; [12]", "value": 0.29, "unit": "mM"}, {"measurement": "DNA site saturation, one psoralen per base pairs", "setting": "Calf thymus DNA [4]; saturated solution, expected from KD and solubility", "value": "one psoralen per three base pairs"}, {"measurement": "(PS)/(S) for DNA in Saturated Solution", "setting": "Calf thymus DNA [4]; saturated solution", "value": 0.55}, {"measurement": "(PS)/(S) for DNA in Saturated Solution", "setting": "Calf thymus DNA [4]; saturated solution, listed as 4'-hydroxmethyl trioxsalen", "value": 0.5}, {"measurement": "times more strongly binding to DNA than methoxsalen", "setting": "Calf thymus DNA [4]; vs methoxsalen", "value": 10, "unit": "times"}, {"measurement": "A (footnote 1, shown as drawing 10)", "setting": "DNA (calf thymus) [10]; 20 min irradiation", "value": 9.1}, {"measurement": "B = percent of added psoralen covalently bound", "setting": "DNA (calf thymus) [10]; 20 min irradiation", "value": 33.0, "unit": "%"}, {"measurement": "A (footnote 1, shown as drawing 10)", "setting": "DNA (calf thymus) [10]; 40 min irradiation", "value": 9.2}, {"measurement": "B = percent of added psoralen covalently bound", "setting": "DNA (calf thymus) [10]; 40 min irradiation", "value": 32.6, "unit": "%"}, {"measurement": "A (footnote 1, shown as drawing 10)", "setting": "DNA (calf thymus) [10]; 60 min irradiation", "value": 9.1}, {"measurement": "B = percent of added psoralen covalently bound", "setting": "DNA (calf thymus) [10]; 60 min irradiation", "value": 33.0, "unit": "%"}, {"measurement": "reactivity with DNA", "setting": "DNA", "value": "excellent reactivity with DNA"}, {"measurement": "effectiveness in inactivation of vesicular stomatitis virus vs 4,5',8-trimethyl psoralen", "setting": "[11]", "value": "nearly one thousand times more effective"}]}
